Reference: publication PMC7874389 (Nature, 2020)

Legend:
[1] = system: larval zebrafish expressing GCaMP5; assay: Larval zebrafish seizure experiments; assay type: in vivo; conditions: IBO and TBG 50 μM, PTZ 15 mM, 1 h
larval zebrafish = assay: Larval zebrafish behavioral profiling; assay type: in vivo; conditions: 1–200 μM, 7 dpf, battery of light and acoustic stimuli
C57/BL6J mice = assay: Forced swim test in the absence of UMS; assay type: in vivo, mouse
C57BL/6J mice [2] = assay: Head-twitch response; conditions: i.p., 5-MeO-DMT 10 mg/kg, IBG and TBG fumarate salts 10 and 50 mg/kg
C57BL/6J mice [3] = conditions: cited from earlier work
[4] = system: rodents trained to discriminate DOM from saline; conditions: cited from earlier work
[5] = system: mouse primary sensory cortex; assay: In vivo spine dynamics, transcranial 2-photon imaging; conditions: 24 h after treatment; DOI 10 mg/kg, TBG 50 mg/kg i.p.

With `C1CCc2nnnn2CC1` [PTZ, pentylenetetrazole] as the compound, how does the “seizurogenic potential (neural activity, GCaMP5 fluorescence)” value [1] read?
The value was “excessive neural activity”.

What about the “behavioral profile versus vehicle and lethal (eugenol) controls” value (larval zebrafish) of the same compound?
Its value is “produce behavioral phenotypes more closely resembling a lethal phenotype”.

Which “behavioral profile versus vehicle and lethal (eugenol) controls” value (larval zebrafish) does the source give for picrotoxin here?
The value was “produce behavioral phenotypes more closely resembling a lethal phenotype”.

Which “behavioral profile versus vehicle and lethal (eugenol) controls” value (larval zebrafish) does the source give for `O=S1OCC2C(CO1)C1(Cl)C(Cl)=C(Cl)C2(Cl)C1(Cl)Cl` (centres unmarked) [endosulfan] here?
The value was “produce behavioral phenotypes more closely resembling a lethal phenotype”.

What does the source list for `CNC1(c2ccccc2Cl)CCCCC1=O` (centres unmarked) [KET, ketamine]?
FST immobility (C57/BL6J mice; 24 h following administration, TBG 50 mg/kg, ketamine 3 mg/kg i.p.): significantly reduced immobility; durability of FST effect (C57/BL6J mice; 7 d post drug administration): appeared to be more durable

For `O=C1NCCN1CCN1CCC(c2cn(-c3ccc(F)cc3)c3ccc(Cl)cc23)CC1` [sertindole], which “behavioral profile versus vehicle and lethal (eugenol) controls” value (larval zebrafish) is on record?
The value was “more closely resembling the lethal control”.

With `O=C(CCCN1CCC(O)(c2ccc(Cl)cc2)CC1)c1ccc(F)cc1` [haloperidol] as the compound, how does the “behavioral profile versus vehicle and lethal (eugenol) controls” value (larval zebrafish) read?
Its value is “more closely resembling the lethal control”.

Which “head-twitch response (hallucinogenic potential)” value (C57BL/6J mice [2]) does the source give for `COc1ccc2[nH]cc(CCN(C)C)c2c1` [5-MeO-DMT, 5-methoxy-N,N-dimethyltryptamine] here?
The value was “produces a robust HTR”.

What does the source list for `COc1ccc2c(CCN(C)C)c[nH]c2c1` [6-MeO-DMT]?
head-twitch response (C57BL/6J mice [3]): does not produce a head-twitch response; substitution for DOM [4]: did not substitute for the hallucinogen 2,5-dimethoxy-4-methylamphetamine (DOM) at any dose

With `COc1cc(CC(C)N)c(OC)cc1I` (centres unmarked) [DOI, 2,5-dimethoxy-4-iodoamphetamine] as the compound, how does the spine elimination [5] read?
The spine elimination was “without impacting spine elimination”.

And the spine formation [5]?
The spine formation was “increased spine formation”.

Which “behavioral profile versus vehicle and lethal (eugenol) controls” value (larval zebrafish) does the source give for `CC(C)(C)c1ccc(C(O)CCCN2CCC(C(O)(c3ccccc3)c3ccccc3)CC2)cc1` (centres unmarked) [terfenadine] here?
The value was “more closely resembling the lethal control”.
